Results as given in patent US12640251B2, “Methods of treating dementia associated with alzheimer's disease with protective protein/cathepsin A (PPCA)” (St. Jude Children's Research Hospital, priority 2011, dated 2026).
“Also recorded” adds a separate entry of the source.

Legend:
RH41 cells = test: Doxorubicin exposure, apoptotic response (cleaved PARP immunoblot); assay type: cell-based, human; settings: parental RH41 cells, high NEU1
RH30 cells = test: Doxorubicin efflux assay; assay type: cell-based, human; settings: 3 μg/mL DOXO for 2 hours, then DOXO-free medium for 2 hours
Method: Cells were plated and maintained at 50% confluency. The next day, they were treated with medium containing 3 μg/mL DOXO for 2 hours. Treated cells were then washed 3 times with PBS and cultured in DOXO-free medium for an additional 2 hours, to allow efflux of the drug into fresh medium. The conditioned medium was then centrifuged at 1000 rpm […] for 5 minutes and a 500 μL aliquot was spun through an ULTRAFREE-MC 0.1 μm Eppendorf centrifugal filter (Millipore) to capture the effluxed drug. The filter was then placed on a microscopic slide and images of the red fluorescence filter were taken on a Nikon Cl microscope.

RH30^NEU1 cells = test: DOXO dose response, apoptotic response (cleaved PARP immunoblot); assay type: cell-based, human; settings: compared with unmodified controls
Method: (§1) Finally, we generated DOXO dose response curves in both parental cell lines and the modified lines to examine the differences in their apoptotic responses. Immunoblots of the cleaved poly (ADP-ribose) polymerase (PARP), a canonical apoptotic marker, were used for this purpose (data not shown).
(§2) RH30 cells were transduced with the pBABE-puro retroviral vector (AddGene), either unmodified or containing the human NEU1 cDNA. Transduced cells were selected with puromycin (2 μg/mL), according to the predetermined sensitivity of the cell line, and were maintained in 0.5 μg/mL selection medium. RH41 cells were transfected with a panel of NEU1 shRNA plasmids (RHS4533-NM000434, Open Biosystems) or the accompanying empty vector control. The cells were selected with puromycin and maintained under selection medium.

RH41^shNEU1 cells = test: as above; assay type: cell-based, human; settings: compared with corresponding unmodified cells
Method: as §1, §2

EW8 cells = test: DOXO response of Ewing sarcoma cell line; assay type: cell-based; settings: high-NEU1 cells
Excerpt: (§3) We, therefore, characterized other tumor cell lines, in terms of their invasive potential and NEU1 status. We chose the Ewing sarcoma cell lines, EW8 and SKNEP1, for their divergent NEU1 levels. Similar to the RMS cell lines, the low-NEU1 SKNEP1 cells accumulated oversialylated LAMP1, were resistant to DOXO, and more successfully invaded matrigel and peritoneal basement membranes than did the high-NEU1 DOXO-sensitive EW8 cells (data not shown). We also analyzed the colon carcinoma cell lines, SW480 and SW620, because of their well-characterized derivation (Leibovitz et al., 1976): SW480 cells are from a primary colon carcinoma; SW620 cells are from a metastatic recurrence. […] This was also paralleled by a drastic increase in LAMP1 levels compared to that in SW480 (data not shown).

SKNEP1 cells = test: DOXO response of Ewing sarcoma cell line; assay type: cell-based; settings: low-NEU1 cells
Excerpt: as §3

## COc1cccc2c1C(=O)c1c(O)c3c(c(O)c1C2=O)C[C@@](O)(C(=O)CO)C[C@@H]3O[C@H]1C[C@H](N)[C@H](O)[C@H](C)O1 [doxorubicin]
RH41 cells
  response to doxorubicin (apoptosis): highly susceptible; also recorded: readily apoptosed
RH30 cells
  efflux of DOXO into culture medium (red fluorescence): released from these cells
RH30^NEU1 cells
  apoptotic response to DOXO: more sensitive
RH41^shNEU1 cells
  apoptotic response to DOXO: more resistant to apoptosis
EW8 cells
  response to DOXO: sensitive
SKNEP1 cells
  response to DOXO: resistant
